Literature values as cited in paper PMC4274137 (HIV/AIDS (Auckland, N.Z.), 2014).
Like-named read-outs stand apart in the source and are kept apart here. Values belong to the compound of their own block, whether it stands above or below them.

What was measured:
[1] = tested on: HIV dyslipidemia
[2] = tested on: HIV patients
[3] = tested on: HIV patients; settings: DAD study
[4] = tested on: HIV patients; remark: listed apart in the source
[5] = tested on: Asian patients with HIV
[6] = tested on: HIV patients; settings: HIV patients in France
[7] = tested on: HIV patients; settings: Danish study
[8] = HIV dyslipidemia, ezetimibe monotherapy or combined with statin

SMILES: O=C1[C@H](CC[C@H](O)c2ccc(F)cc2)[C@@H](c2ccc(O)cc2)N1c1ccc(F)cc1 [Ezetimibe]
lipid-lowering efficacy [1, 8]: effective
safety [2, 8]: safe

SMILES: CC(C)OC(=O)C(C)(C)Oc1ccc(C(=O)c2ccc(Cl)cc2)cc1 [Fenofibrate]
efficacy in mixed dyslipidemia and hypertriglyceridemia ([1]; people with HIV infection): useful
safety ([2]; people with HIV infection): generally safe

SMILES: O=C(O)c1cccnc1 [Niacin]
efficacy in improving lipid profile ([1]; HIV patients, two studies): effective
safety ([2]; HIV patients, two studies): safe

SMILES: Nc1nc(NC2CC2)c2ncn([C@H]3C=C[C@@H](CO)C3)c2n1 [abacavir]
risk of myocardial infarction [3]: associated with independent risk of myocardial infarction

SMILES: O=C1Nc2ccc(Cl)cc2[C@@](C#CC2CC2)(C(F)(F)F)O1 [efavirenz]
total cholesterol and triglycerides ([4]; HIV patients on NNRTIs): associated with increase in total cholesterol and triglycerides

association of treatment with NAFLD [5]: not with HIV-related factors
risk factor for hypothyroidism [6]: risk factors
SMILES: Cc1cn([C@H]2C=C[C@@H](CO)O2)c(=O)[nH]c1=O [stavudine]

high triglycerides and lipoatrophy (NRTI effect) ([4]; compared with other NRTIs): this effect is less seen
SMILES: C[C@H](Cn1cnc2c(N)ncnc21)OCP(=O)(O)O [tenofovir]
estimated glomerular filtration rate (eGFR) [7]: reduced estimated glomerular filtration rate

association of treatment with NAFLD [5]: not with HIV-related factors
SMILES: Nc1ccn([C@H]2CC[C@@H](CO)O2)c(=O)n1 [zalcitabine]
